Legend:
[1] = release kinetics: t1/2 for cleavage with release of the PHOTO moiety in alkaline solution; type: physicochemical; settings: 1×10^-4 molar, 30% acetonitrile/0.25N aqueous potassium hydroxide, 22°+0.1° C., 100 µM
Excerpt: The rate of release of the PHOTO moiety is dependent upon a number of factors. […] The release rate is also dependent upon the hydroxyl ion concentration of the alkaline medium. […] The rate of release is also temperature dependent, that is, the rate increases as the temperature at which processing of the film unit is effected increases. Thus, where PHOTO is a photographic reagent residue for example, the compounds which are utilized according to the invention can provide more uniform sensitometry for the film units of the invention over a wide temperature range of processing. In other words, the sensitometry of such film units can be less temperature dependent than would otherwise be the case.
The release kinetics of the compounds of the invention vary over a wide range. The t1/2 times in solution, i.e., the time required for one-half of the material to undergo cleavage with release of the PHOTO moiety, for some of the compounds illustrated above are shown in Table I. The values were obtained using 1×10^-4 molar concentrations in 30% acetonitrile/0.25N aqueous potassium hydroxide solution at a temperature of 22°+0.1° C.

[2] = Arrhenius activation energy (Ea) of release of the PHOTO moiety; type: physicochemical; settings: log of observed rate constant vs 1/T (° K.)
Protocol: The rate at which the release reaction increases with temperature is a function of the activation energy. For example, for an increase in temperature from 20° C. to 30° C., it hs been calculated that the reaction rate will increase by a factor of 2 when Ea is 12.2, by a factor of about 3 when Ea is 19.3, by a factor of about 4 when Ea is 24.4 and by a factor of about 5 when Ea is 28.3. […] Typically, for such release reactions with other compounds, when the room temperature release rate is relatively fast, the activation energy tends to be about 10. Accordingly, it is possible to select, according to the invention, for a particular photographic system a compound which has a desired release rate at room temperature, a much slower release rate at lower temperatures and a much higher release rate at higher temperatures.
The Arrhenius activation energy (Ea) was calculated by plotting the log of the observed rate constant vs 1/T (° K.) for each compound.

| SMILES | t1/2 [1] [s] | Arrhenius activation energy (Ea) [2] [kcal/mol] | t1/2 ([1]; syn isomer) [s] |
| --- | --- | --- | --- |
| CC(CSc1nnnn1-c1ccccc1)=NO [IX] | 22.5 | 26.5 |  |
| ON=C(CSc1nnnn1-c1ccccc1)CSc1nnnn1-c1ccccc1 [III] | 8.9 |  |  |
| CS(=O)(=O)Nc1ccc(C(CSc2nnnn2-c2ccccc2)=NO)cc1 [XI] | 7.6 |  |  |
| ON=CCSc1nnnn1-c1ccccc1 [VIII] | 49.1 |  | 1020.0 |
| Cc1ccc(S(=O)(=O)NN=C(CSc2nnnn2-c2ccccc2)c2ccccc2)cc1 [XII] | 165.0 |  |  |
| COc1ccc(C(CSc2nnnn2-c2ccccc2)=NO)cc1 [X] | 4.3 | 21.9 |  |
| CC(CSc1nnnn1-c1ccc(C(C)=NO)cc1)=NO [VI] | 28.9 |  |  |
| ON=C(CSc1nnnn1-c1ccc(O)cc1)CSc1nnnn1-c1ccc(O)cc1 [Compound I] | 51.1 | 21.8 |  |
| NC(CSc1nnnn1-c1ccccc1)=NO [XIII] | 546.0 |  |  |
| ON=C(CSc1nnnn1-c1ccccc1)c1ccccc1 [VII] | 4 to 6 |  |  |
| CC(CSc1nnnn1-c1ccc(O)cc1)=NO [V] | 40.5 |  |  |

— patent US4946964A, “Photographic compounds” (Polaroid Corporation, priority 1987, dated 1990)
